Experimental data as given in publication PMC7037682, “Herb–Drug Interaction of Red Ginseng Extract and Ginsenoside Rc with Valsartan in Rats” (Molecules, 2020).

Assays:
[1] = biological target: T1, OATP1B3 (Homo sapiens, UniProt Q9NPD5); test: Inhibition of OATP1B3-mediated [3H]estradiol-17β-D-glucuronide uptake in HEK293-OATP1B3 cells
T1 sequence (Q9NPD5 1-702): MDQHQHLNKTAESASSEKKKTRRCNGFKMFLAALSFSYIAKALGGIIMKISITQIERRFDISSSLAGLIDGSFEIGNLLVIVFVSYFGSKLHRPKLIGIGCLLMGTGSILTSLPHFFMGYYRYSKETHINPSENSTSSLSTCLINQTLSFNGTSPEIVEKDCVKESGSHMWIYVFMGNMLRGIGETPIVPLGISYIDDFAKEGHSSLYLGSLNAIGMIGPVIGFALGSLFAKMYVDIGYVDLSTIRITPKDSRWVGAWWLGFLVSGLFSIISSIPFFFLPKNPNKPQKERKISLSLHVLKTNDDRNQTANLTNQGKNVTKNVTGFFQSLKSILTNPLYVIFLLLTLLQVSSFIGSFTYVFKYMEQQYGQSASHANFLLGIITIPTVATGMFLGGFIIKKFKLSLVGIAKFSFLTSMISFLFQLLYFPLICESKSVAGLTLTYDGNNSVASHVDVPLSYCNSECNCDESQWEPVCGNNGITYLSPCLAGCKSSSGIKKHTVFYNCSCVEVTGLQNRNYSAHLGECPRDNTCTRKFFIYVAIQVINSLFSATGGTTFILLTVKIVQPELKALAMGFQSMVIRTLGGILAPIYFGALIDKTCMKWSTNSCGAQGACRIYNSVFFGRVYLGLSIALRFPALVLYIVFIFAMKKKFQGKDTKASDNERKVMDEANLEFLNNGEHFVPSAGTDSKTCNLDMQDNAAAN
Procedure: HEK293 cells overexpressing the OCT1, OCT2, OAT1, OAT3, OATP1B1, and OATP1B3 transporters (HEK293-OCT1, -OCT2, -OAT1, -OAT3, -OATP1B1, and -OATP1B3, respectively) and HEK293-mock cells (Corning Life Sciences; Woburn, MA, USA) were used and characterized as previously described.
HEK293 cells overexpressing drug transporters and HEK293-mock cells were seeded in poly-D-lysine-coated 96-well plates at a density of 10^5 cells/well and were cultured in DMEM supplemented with 10% FBS, 5 mM non-essential amino acids, and 2 mM sodium butyrate in a humidified atmosphere with 8% CO2 at 37 °C.
To examine the effects of ginsenosides and typical inhibitors on transporter activity, aliquots (100 μL) of HBSS containing the probe substrate and ginsenosides or typical inhibitors were added to the cells after aspirating pre-incubated HBSS. The concentrations and probe substrates were as follows: 0.1 μM [^3H]MPP^+ for OCT1 and OCT2, 0.1 μM [^3H]PAH for OAT1, 0.1 μM [^3H]ES for OAT3 and OATP1B1, and 0.1 μM [^3H]EG for OATP1B3. […] Then the uptake of probe substrates into HEK293-mock cells and HEK293-OCT1, -OCT2, -OAT1, -OAT3, -OATP1B1, and -OATP1B3 cells in the presence and absence of typical inhibitor or each ginsenoside with previously described concentration range was measured for 5 min. Immediately after placing the plates on ice, the cells were washed three times with 100 μL of ice-cold HBSS, followed by lysing with 50 μL of 10% SDS solution and mixing with 150 μL of Optiphase cocktail solution (Perkin Elmer Inc., Boston, MA, USA). The radioactivity of the probe substrates in the cells was determined using a liquid scintillation counter.
In the inhibition studies, the uptake rate of substrate by HEK293 cells overexpressing the respective transporters was used as the control (100%) and the uptake rate of substrates in the presence of typical inhibitors or ginsenosides expressed as a percentage of the control. The inhibition data were fitted to an inhibitory effect model using Sigma plot (version 10.0; Systat Software Inc., San Jose, CA, USA). IC50 value indicated the half-maximal inhibitory concentration of the inhibitor.

[2] = Protein binding in rat liver homogenate by rapid equilibrium dialysis; type: in vitro ADME; conditions: 10% liver homogenate, rat liver homogenate (10%)
Procedure: The protein binding of Rb1, Rb2, and Rc (1 μM) in rat plasma and liver homogenate was determined using a rapid equilibrium dialysis kit (ThermoFisher Scientific Korea, Seoul, Korea) according to the manufacturer’s instructions. Briefly, 100 μL of rat plasma and 10% liver homogenate samples containing Rb1, Rb2, or Rc (1 μM) were added to the sample chamber of a semipermeable membrane (molecular weight cut-off 8000 Da) and 300 μL of HBSS was added to the outer buffer chamber. Four hours after incubation at 37 °C on a shaking incubator at 300 rpm, aliquots (50 μL) were collected from both the sample and buffer chambers and treated with equal volumes of fresh HBSS and plasma, respectively, to match the sample matrices. The matrix-matched samples (100 μL) were mixed with 300 μL of 80% ice-cold methanol containing berberine 0.05 ng/mL and 0.1% formic acid for 15 min.
Tissue protein binding was calculated using the following equations, and a dilution factor (D as a value of 10) was used since we used 10% liver homognenates. (2) Diluted free drug fraction fu^′= Drug concentration in buffer chamber/Drug concentration in liver homogenate chamber (3) Undiluted free drug fraction fu= 1/D/1/fu^′−1+1/D= 0.1/1/fu^′−1+0.1

[3] = biological target: T2, OATP1B1 (Homo sapiens, UniProt Q9Y6L6); test: Inhibition of OATP1B1-mediated valsartan uptake in HEK293-OATP1B1 cells; type: cell-based; design: host or cells: HEK293; conditions: 5 μM valsartan, 5 min
T2 sequence (Q9Y6L6 1-691): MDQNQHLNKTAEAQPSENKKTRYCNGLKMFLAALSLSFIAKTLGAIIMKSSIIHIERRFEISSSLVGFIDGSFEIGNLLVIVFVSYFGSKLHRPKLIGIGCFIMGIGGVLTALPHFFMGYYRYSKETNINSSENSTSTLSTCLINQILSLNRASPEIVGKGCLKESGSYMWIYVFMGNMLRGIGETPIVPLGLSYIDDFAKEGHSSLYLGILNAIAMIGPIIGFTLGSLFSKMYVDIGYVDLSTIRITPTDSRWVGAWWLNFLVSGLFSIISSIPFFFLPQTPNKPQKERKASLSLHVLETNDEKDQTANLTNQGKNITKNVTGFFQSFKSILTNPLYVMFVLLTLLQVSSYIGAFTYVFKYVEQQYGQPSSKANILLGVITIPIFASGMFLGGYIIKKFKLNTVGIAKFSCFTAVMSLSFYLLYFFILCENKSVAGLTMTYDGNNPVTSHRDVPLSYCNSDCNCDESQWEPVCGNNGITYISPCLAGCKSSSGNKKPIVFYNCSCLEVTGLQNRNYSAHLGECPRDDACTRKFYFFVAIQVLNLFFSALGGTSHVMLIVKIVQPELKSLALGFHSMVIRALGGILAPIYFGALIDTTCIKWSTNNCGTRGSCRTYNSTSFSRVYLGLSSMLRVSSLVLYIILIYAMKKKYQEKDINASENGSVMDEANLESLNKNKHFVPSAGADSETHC
Procedure: (§1) Transporter mediated uptake of probe substrates or valsartan was calculated by subtracting the uptake rate of probe substrates or valsartan into HEK293-mock cells from that into HEK293 cells expressing respective transporters.

[4] = biological target: T1, OATP1B3; test: Inhibition of OATP1B3-mediated valsartan uptake in HEK293-OATP1B3 cells; type: cell-based; design: host or cells: HEK293; conditions: 5 μM valsartan, 5 min
Procedure: as §1

[5] = read-out: IC50 OATP1B3, HEK293-OATP1B3, 0.1 μM [3H]EG uptake, 5 min
[6] = HEK293-OATP1B3, 0.1 μM [3H]EG uptake, 5 min

| SMILES | IC50 [1, 5] | IC50 [1] | other results |
| --- | --- | --- | --- |
| CC(C)=CCC[C@](C)(O)[C@H]1CC[C@]2(C)[C@@H]1[C@H](O)C[C@@H]1[C@@]3(C)CC[C@H](O[C@@H]4O[C@H](CO)[C@@H](O)[C@H](O)[C@H]4O[C@@H]4O[C@H](CO)[C@@H](O)[C@H](O)[C@H]4O)C(C)(C)[C@@H]3CC[C@]12C [Rg3, ginsenoside Rg3] | 5.13 µM | – | – |
| CC(C)=CCC[C@](C)(O)[C@H]1CC[C@]2(C)[C@@H]1[C@H](O)C[C@@H]1[C@@]3(C)CC[C@H](O[C@@H]4O[C@H](CO)[C@@H](O)[C@H](O)[C@H]4O)C(C)(C)[C@@H]3CC[C@]12C [Rh2, ginsenoside Rh2] | – | 30.8 µM | – |
| CC(C)=CCC[C@](C)(O)[C@H]1CC[C@]2(C)[C@@H]1[C@H](O)C[C@@H]1[C@@]3(C)CC[C@H](O)C(C)(C)[C@@H]3[C@@H](O)C[C@]12C [PPT, protopanaxatriol] | 20.3 µM | – | – |
| CC(C)=CCC[C@](C)(O[C@@H]1O[C@H](CO[C@@H]2OC[C@H](O)[C@H](O)[C@H]2O)[C@@H](O)[C@H](O)[C@H]1O)[C@H]1CC[C@]2(C)[C@@H]1[C@H](O)C[C@@H]1[C@@]3(C)CC[C@H](O[C@@H]4O[C@H](CO)[C@@H](O)[C@H](O)[C@H]4O[C@@H]4O[C@H](CO)[C@@H](O)[C@H](O)[C@H]4O)C(C)(C)[C@@H]3CC[C@]12C [Rb2, ginsenoside Rb2] | – | 1.76 µM | fraction unbound at 4 h, 1 μM [2]: 0.004; IC50 [3]: 8.8 µM; IC50 [4]: 5.1 µM |
| CC(C)=CCC[C@](C)(O)[C@H]1CC[C@]2(C)[C@@H]1[C@H](O)C[C@@H]1[C@@]3(C)CC[C@H](O)C(C)(C)[C@@H]3[C@@H](O[C@@H]3O[C@H](CO)[C@@H](O)[C@H](O)[C@H]3O)C[C@]12C [Rh1, ginsenoside Rh1] | – | > 100 µM | IC50 OATP1B3 [1, 6]: did not inhibit |
| CC(C)=CCC[C@](C)(O[C@@H]1O[C@H](CO[C@@H]2O[C@H](CO)[C@@H](O)[C@H](O)[C@H]2O)[C@@H](O)[C@H](O)[C@H]1O)[C@H]1CC[C@]2(C)[C@@H]1[C@H](O)C[C@@H]1[C@@]3(C)CC[C@H](O[C@@H]4O[C@H](CO)[C@@H](O)[C@H](O)[C@H]4O[C@@H]4O[C@H](CO)[C@@H](O)[C@H](O)[C@H]4O)C(C)(C)[C@@H]3CC[C@]12C [Rb1, ginsenoside Rb1] | – | 2.28 µM | fraction unbound at 4 h, 1 μM [2]: 0.004; IC50 [3]: 24.1 µM; IC50 [4]: 4.1 µM |
| CC(C)=CCC[C@](C)(O[C@@H]1O[C@H](CO[C@@H]2O[C@@H](CO)[C@H](O)[C@H]2O)[C@@H](O)[C@H](O)[C@H]1O)[C@H]1CC[C@]2(C)[C@@H]1[C@H](O)C[C@@H]1[C@@]3(C)CC[C@H](O[C@@H]4O[C@H](CO)[C@@H](O)[C@H](O)[C@H]4O[C@@H]4O[C@H](CO)[C@@H](O)[C@H](O)[C@H]4O)C(C)(C)[C@@H]3CC[C@]12C [Rc, ginsenoside Rc] | – | 1.36 µM | fraction unbound at 4 h, 1 μM [2]: 0.005; IC50 [3]: 13.6 µM; IC50 [4]: 1.9 µM |
| CC(C)=CCC[C@](C)(O[C@@H]1O[C@H](CO)[C@@H](O)[C@H](O)[C@H]1O)[C@H]1CC[C@]2(C)[C@@H]1[C@H](O)C[C@@H]1[C@@]3(C)CC[C@H](O)C(C)(C)[C@@H]3[C@@H](O[C@@H]3O[C@H](CO)[C@@H](O)[C@H](O)[C@H]3O[C@@H]3O[C@@H](C)[C@H](O)[C@@H](O)[C@H]3O)C[C@]12C [Re, ginsenoside Re] | – | > 100 µM | IC50 OATP1B3 [1, 6]: did not inhibit |
| CC(C)=CCCC(C)(O)[C@H]1CC[C@]2(C)[C@@H]1[C@H](O)C[C@@H]1[C@@]3(C)CC[C@H](O)C(C)(C)[C@@H]3CC[C@]12C (stereo in doubt) [PPD, protopanaxadiol] | > 100 µM | – | – |
| CC(C)=CCC[C@](C)(O[C@@H]1O[C@H](CO)[C@@H](O)[C@H](O)[C@H]1O)[C@H]1CC[C@]2(C)[C@@H]1[C@H](O)C[C@@H]1[C@@]3(C)CC[C@H](O)C(C)(C)[C@@H]3[C@@H](O[C@@H]3O[C@H](CO)[C@@H](O)[C@H](O)[C@H]3O)C[C@]12C [Rg1, ginsenoside Rg1] | – | > 100 µM | IC50 OATP1B3 [1, 6]: did not inhibit |
| CC(C)=CCC[C@](C)(O[C@@H]1O[C@H](CO)[C@@H](O)[C@H](O)[C@H]1O)[C@H]1CC[C@]2(C)[C@@H]1[C@H](O)C[C@@H]1[C@@]3(C)CC[C@H](O[C@@H]4O[C@H](CO)[C@@H](O)[C@H](O)[C@H]4O[C@@H]4O[C@H](CO)[C@@H](O)[C@H](O)[C@H]4O)C(C)(C)[C@@H]3CC[C@]12C [Rd, ginsenoside Rd] | – | 25.8 µM | – |
| CC(C)=CCC[C@](C)(O[C@@H]1O[C@H](CO)[C@@H](O)[C@H](O)[C@H]1O)[C@H]1CC[C@]2(C)[C@@H]1[C@H](O)C[C@@H]1[C@@]3(C)CC[C@H](O)C(C)(C)[C@@H]3CC[C@]12C [Compound K, compound K] | 8.25 µM | – | – |
